Where a SMILES comes first, the peptide text is derived from it. Bridges are numbered along the chain shown (N, C = ends). [ ]: non-standard residue; d: D form. The star is where a group is joined. hPhe(3,5-F2-4-CF3) = N[C@@H](CCc1cc(F)c(C(F)(F)F)c(F)c1)C(=O)O; hPhe(3-Cl-4-CF3) = N[C@@H](CCc1ccc(C(F)(F)F)c(Cl)c1)C(=O)O; NPrPhe(4-CF3) = CCCN[C@@H](Cc1ccc(C(F)(F)F)cc1)C(=O)O; NMeGly(cPent) = CN[C@H](C(=O)O)C1CCCC1; αMeI = CC[C@H](C)[C@](C)(N)C(=O)O; NMeD = CN[C@@H](CC(=O)O)C(=O)O; NMeL = CN[C@@H](CC(C)C)C(=O)O; Pip = O=C(O)[C@@H]1CCCCN1; Morpholide = C1CN(*)CCO1; Ac5c = NC1(C(=O)O)CCCC1; Aze = O=C(O)[C@@H]1CCN1; Sar = CNCC(=O)O

Assay [1] deals with GDP-bound HRAS wild-type protein (Homo sapiens, UniProt P01112). The assay can be described thus: Binding to HRAS by surface plasmon resonance (SPR), Single Cycle Kinetics. The settings on record: SPR. (In general: In SPR one partner is held on a chip, and binding of the other changes the refractive index at the surface.)
Sequence of GDP-bound HRAS wild-type protein (P01112 whole entry): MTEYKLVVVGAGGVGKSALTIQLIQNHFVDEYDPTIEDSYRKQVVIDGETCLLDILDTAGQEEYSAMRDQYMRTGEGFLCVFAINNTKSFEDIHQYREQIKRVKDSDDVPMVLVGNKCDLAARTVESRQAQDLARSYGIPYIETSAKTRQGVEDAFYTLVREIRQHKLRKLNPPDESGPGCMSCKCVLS
Assay [2] concerns the target GDP-bound NRAS wild-type protein (Homo sapiens, UniProt P01111). The assay can be described thus: Binding to NRAS by surface plasmon resonance (SPR), Single Cycle Kinetics. The settings on record: SPR.
Where [3] appears, read: GDP-bound HRAS wild-type vs GDP-bound KRAS wild-type.
[4] abbreviates: GDP-bound NRAS wild-type vs GDP-bound KRAS wild-type.

Sequence of GDP-bound NRAS wild-type protein (P01111 whole entry): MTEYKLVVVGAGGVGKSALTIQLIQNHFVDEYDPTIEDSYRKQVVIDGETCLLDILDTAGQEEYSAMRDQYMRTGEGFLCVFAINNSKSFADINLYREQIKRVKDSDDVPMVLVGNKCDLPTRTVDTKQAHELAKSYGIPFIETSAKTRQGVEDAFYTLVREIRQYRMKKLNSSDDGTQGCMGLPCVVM

With `CC[C@H](C)[C@@H]1NC(=O)[C@H](CC(C)C)N(C)C(=O)C[C@@H](C(=O)N2CCOCC2)N(C)C(=O)[C@H](C2CCCC2)N(C)C(=O)[C@](C)(CC)NC(=O)[C@@H]2CCCN2C(=O)[C@H](CCc2cc(F)c(C(F)(F)F)c(F)c2)NC(=O)CN(C)C(=O)[C@H](Cc2ccc(C(F)(F)F)cc2)N2CCCCC[C@@H](C2=O)N(C)C(=O)CN(C)C1=O` [PP0500], the “HRAS/KRAS (ratio of KD value with respect to GDP-bound HRAS wild-type protein to KD value with respect to KRAS)” value in assay [1] (KD ratio HRAS/KRAS) is “B (a compound having 3 or more and less than 10 is denoted as B)”. The “NRAS/KRAS (ratio of KD value with respect to GDP-bound NRAS wild-type protein to KD value with respect to KRAS)” value in assay [2] (KD ratio NRAS/KRAS) was “B (a compound having 3 or more and less than 10 is denoted as B)”.
With `CCO[C@@H]1C[C@H]2C(=O)NC3(CC(C)(C)C3)C(=O)N(C)[C@@H](C(CC)CC)C(=O)N(C)[C@H](C(=O)N(C)C)CC(=O)N(C)[C@@H](CC3CC3)C(=O)N[C@@H]([C@@H](C)CC)C(=O)N(C)CC(=O)N(C)[C@H]3C/C=C\CCN(C3=O)[C@@H](CC3CCC(F)(F)CC3)C(=O)N(C)CC(=O)N[C@@H](CCc3ccc(C(F)(F)F)c(Cl)c3)C(=O)N2C1` [PP2495], the “HRAS/KRAS (ratio of KD value with respect to HRAS to KD value with respect to KRAS)” value in assay [1] (setting [3]) is “A (a compound having 10 or more and less than 20 is denoted as A)”. Besides, the “NRAS/KRAS (ratio of KD value with respect to NRAS to KD value with respect to KRAS)” value in assay [2] (setting [4]) is “A (a compound having 10 or more and less than 20 is denoted as A)”.
Take `CCCN1C(=O)CN(C)C(=O)[C@@H]2CCN2C(=O)[C@H]([C@@H](C)CC)NC(=O)[C@H](CC(C)C)N(C)C(=O)C[C@@H](C(=O)N2CCOCC2)N(C)C(=O)[C@H](C2CCCC2)N(C)C(=O)[C@](C)([C@@H](C)CC)NC(=O)[C@@H]2CCCN2C(=O)[C@H](CCc2cc(F)c(C(F)(F)F)c(F)c2)NC(=O)CN(C)C(=O)[C@@H]1Cc1ccc(C(F)(F)F)cc1` [PP0774] ([NMeL]I[Aze][Sar][NPrPhe(4-CF3)][Sar][hPhe(3,5-F2-4-CF3)]P[αMeI][NMeGly(cPent)][NMeD]-Morpholide; lactam N-11): the “HRAS/KRAS (ratio of KD value with respect to GDP-bound HRAS wild-type protein to KD value with respect to KRAS)” value in assay [1] (KD ratio HRAS/KRAS) is “B (a compound having 3 or more and less than 10 is denoted as B)”. In assay [2] (KD ratio NRAS/KRAS), the “NRAS/KRAS (ratio of KD value with respect to GDP-bound NRAS wild-type protein to KD value with respect to KRAS)” value is “B (a compound having 3 or more and less than 10 is denoted as B)”.
For the compound `CC[C@H](C)[C@@H]1NC(=O)[C@H](CC(C)C)N(C)C(=O)C[C@@H](C(=O)N2CCOCC2)N(C)C(=O)[C@H](C2CCCC2)N(C)C(=O)C2(CCCC2)NC(=O)[C@@H]2CCCN2C(=O)[C@H](CCc2ccc(C(F)(F)F)c(Cl)c2)NC(=O)CN(C)C(=O)[C@H](Cc2ccc(OC(F)(F)F)cc2)N2CC=CC[C@@H](C2=O)N(C)C(=O)CN(C)C1=O` [PP0537], the “HRAS/KRAS (ratio of KD value with respect to GDP-bound HRAS wild-type protein to KD value with respect to KRAS)” value in assay [1] (KD ratio HRAS/KRAS) is “C (A compound having a KD ratio of 0.1 or more and less than 3 is denoted as C)”. In assay [2] (KD ratio NRAS/KRAS), the “NRAS/KRAS (ratio of KD value with respect to GDP-bound NRAS wild-type protein to KD value with respect to KRAS)” value was “C (A compound having a KD ratio of 0.1 or more and less than 3 is denoted as C)”.
Take `CCC[C@H]1C(=O)N[C@@H]([C@@H](C)CC)C(=O)N(C)CC(=O)N(C)[C@H]2C/C=C\CCN(C2=O)[C@@H](Cc2ccc(C)cc2)C(=O)N(C)CC(=O)N[C@@H](CCc2ccc(C(F)(F)F)c(OC)c2)C(=O)N2C[C@H](C)C[C@H]2C(=O)NC2(CCC2)C(=O)N(C)[C@@H](C2CCCC2)C(=O)N(C)[C@H](C(=O)N(C)C)CC(=O)N1C` [PP1859]: the “HRAS/KRAS (ratio of KD value for HRAS to KD value for KRAS)” value in assay [1] (setting [3]) is “A (a compound having 10 or more and less than 20 is denoted as A)”. For the same compound, the “NRAS/KRAS (ratio of KD value for NRAS to KD value for KRAS)” value in assay [2] (setting [4]) was “A (a compound having 10 or more and less than 20 is denoted as A)”.
For the compound `CCC[C@H]1C(=O)N[C@@H]([C@@H](C)CC)C(=O)N(C)CC(=O)N(C)[C@H]2C/C=C\CCN(C2=O)[C@@H](Cc2ccc(C)cc2)C(=O)N(C)CC(=O)N[C@@H](CCc2ccc(C(F)(F)F)c(OC)c2)C(=O)N2C[C@@H](C)C[C@H]2C(=O)NC2(CC(C)(C)C2)C(=O)N(C)[C@@H](C2CCCC2)C(=O)N(C)[C@H](C(=O)N(C)C)CC(=O)N1C` [PP1888], in assay [1] (setting [3]), the “HRAS/KRAS (ratio of KD value for HRAS to KD value for KRAS)” value is “B (a compound having 3 or more and less than 10 is denoted as B)”. Moreover, in assay [2] (setting [4]), the “NRAS/KRAS (ratio of KD value for NRAS to KD value for KRAS)” value is “A (a compound having 10 or more and less than 20 is denoted as A)”.
With `CCCN1C(=O)[C@@H]2CCN2C(=O)[C@@H]2CCCCN2C(=O)[C@H]([C@@H](C)CC)NC(=O)[C@H](CC(C)C)N(C)C(=O)C[C@@H](C(=O)N2CCOCC2)N(C)C(=O)[C@H](C2CCCC2)N(C)C(=O)C2(CCCC2)NC(=O)[C@@H]2CCCN2C(=O)[C@H](CCc2ccc(C(F)(F)F)c(Cl)c2)NC(=O)CN(C)C(=O)[C@@H]1Cc1ccc(C(F)(F)F)cc1` [PP0077] ([NMeL]I[Pip][Aze][NPrPhe(4-CF3)][Sar][hPhe(3-Cl-4-CF3)]P[Ac5c][NMeGly(cPent)][NMeD]-Morpholide; lactam N-11), the “HRAS/KRAS (ratio of KD for GDP-bound HRAS wild-type to KD for KRAS)” value in assay [1] (KD ratio HRAS/KRAS) is “B (a compound having 3 or more and less than 10 is denoted as B)”. Also, in assay [2] (KD ratio NRAS/KRAS), the “NRAS/KRAS (ratio of KD for GDP-bound NRAS wild-type to KD for KRAS)” value was “C (A compound having a KD ratio of 0.1 or more and less than 3 is denoted as C)”.

The values are drawn from patent US20250230193A1, “CYCLIC COMPOUND HAVING SELECTIVE KRAS INHIBITORY EFFECT ON HRAS AND NRAS” (CHUGAI SEIYAKU KABUSHIKI KAISHA, priority 2022, published 2025).
